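These data come from cells grown in 96-well plates and exposed to compound for 48 hours at five concentrations. The concentration for 50% growth inhibition is given as GI50. At the TGI there is no net growth.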 Where a SMILES comes first, the peptide text is derived from it. The star is where a group is joined. Boc = CC(C)(C)OC(=O)*
Assays:
Test in all cases: inhibition of tumour cell growth, NCI panel, 48 h
[1] = test system: HL-60(TB) leukemia
[2] = test system: NCI-H522 lung
[3] = test system: A549 NSCLC
[4] = test system: OVCAR-4 ovarian
[5] = test system: SF-268 CNS
[6] = test system: T-47D breast
[7] = test system: SR leukemia
[8] = test system: BT-549 breast
[9] = test system: SK-MEL-28 melanoma
[10] = test system: SNB-78 CNS
[11] = test system: DMS 273 small cell lung
[12] = test system: KM20L2 colon

Compound	TGI [1] [µM]	TGI [2] [µM]	TGI [3] [µM]	TGI [4] [µM]	TGI [5] [µM]	TGI [6] [µM]	TGI [7] [µM]	TGI [8] [µM]	TGI [9] [µM]	GI50 [1] [µM]	GI50 [2] [µM]	TGI [10] [µM]	GI50 [3] [µM]	TGI [11] [µM]	GI50 [4] [µM]	GI50 [5] [µM]	TGI [12] [µM]	GI50 [9] [µM]
COC(=O)C(Cc1c[nH]c2ccccc12)NC(=O)C(Cc1c[nH]c2ccccc12)NC(=O)C(Cc1c[nH]c2ccccc12)NC(=O)C(Cc1c[nH]c2ccccc12)NC(=O)C(Cc1c[nH]c2ccccc12)NC(=O)C(Cc1c[nH]c2ccccc12)NC(=O)OC(C)(C)C (stereo unspecified) (Boc-WWWWWW-OMe; configuration not given here)	> 100	> 100	> 100	> 100	> 100	> 100	> 100	> 100	31.1	–	–	–	–	–	–	–	–	–
N[C@H](C(=O)O)[C@H]1ON=C(Cl)[C@@H]1O	222	62.6	> 550	42.2	> 550	–	–	–	> 550	13.1	> 25.8	> 550	3.79	> 550	5.32	5.1	> 394	28.4
Cc1ccc(N2Cc3c(ccc4ccccc34)OP2(=O)Oc2ccc(Cl)c(C)c2)cc1 (stereo unspecified)	> 100	> 100	> 100	> 100	> 100	–	–	–	> 100	–	–	> 100	–	> 100	–	–	> 100	–
Nc1nc(SCc2ccc([N+](=O)[O-])cc2)nc2c1ncn2C1OC(COP(=O)(O)O)C(O)C1O (stereo unspecified)	> 100	> 100	> 100	> 100	> 100	–	> 100	–	> 100	–	–	> 100	–	> 100	–	–	> 100	–
COc1cc2c(cc1OC)C(C(CO)CO)N(CC(O)CCl)CC2 (stereo unspecified)	> 100	> 100	> 100	> 100	> 100	–	–	–	> 100	–	–	> 100	–	> 100	–	–	> 100	–
Cc1ccc(S(=O)(=O)N/N=C(\c2nc3ccc(Cl)cc3[nH]c2=O)C(O)c2cccc([N+](=O)[O-])c2)cc1 (stereo unspecified)	> 100	> 100	> 100	> 100	> 100	–	> 100	–	> 100	–	–	> 100	–	> 100	–	–	> 100	–
CCC(CON(C)c1ccccc1)(SC)SC	> 100	> 100	> 100	> 100	> 100	> 100	> 100	> 100	> 100	–	–	–	–	–	–	–	–	–
O=c1[nH]c(=O)n(C2OC(COP(=O)(O)OP(=O)(O)OC3OC(CO)C(O)C(O)C3O)C(O)C2O)cc1F (stereo unspecified)	> 100	7.75	8.56	7.25	> 100	–	> 21.6	–	> 100	–	–	> 100	–	–	–	–	> 100	–
CC(NC(=O)C(C)NC(=O)C(N)CCP(C)(=O)O)C(=O)O (stereo unspecified)	> 100	> 100	> 100	> 100	> 100	–	–	–	> 100	–	–	> 100	–	> 100	–	–	> 100	–
COc1ccc2c(CCN)c(C(=O)O)[nH]c2c1	> 100	> 100	> 100	> 100	> 100	> 100	> 43.7	> 100	> 100	–	–	–	–	–	–	–	–	–
CCCCc1ccc(Nc2nc3c(ncn3C3CC(O)C(CN=[N+]=[N-])O3)c(=O)[nH]2)cc1 (stereo unspecified)	> 100	> 100	> 100	> 100	> 100	> 100	> 100	> 100	> 100	–	–	–	–	–	–	–	–	–
CC(O)c1cc2c(s1)C(=O)c1sccc1C2=O (stereo unspecified)	> 100	0.602	0.767	0.344	0.61	0.879	> 100	0.175	0.479	–	–	–	–	–	–	–	–	–
O=C1c2ccc(O)cc2C(=O)c2ccc(O)cc21	> 100	> 100	> 100	> 100	> 100	–	–	–	> 100	–	–	> 100	–	> 100	–	–	–	–
NC(N)=N/N=C/c1nc2n(c1[N+](=O)[O-])CCS2	55	> 100	> 100	41	> 100	67.4	88.2	> 100	> 100	–	–	–	–	–	–	–	–	–
O=S(=O)(CCBr)CCBr	5.93	3.11	27.8	22.5	16.1	–	–	–	8.61	–	–	–	–	15.1	–	–	23.2	–
COc1cc2c(c(OC)c1OC)-c1ccc(SC)c(=O)cc1[C@@H](NCc1ccc(C#N)cc1)CC2	0.0089	0.0081	28.6	> 100	–	–	18.5	–	–	–	–	> 100	–	–	–	–	0.00388	–
COC(=O)C(Cc1c(C2Nc3ccccc3C2CC(NC(=O)CNC(C)=O)C(=O)OC)[nH]c2ccccc12)NC(=O)CNC(C)=O (stereo unspecified)	> 100	> 100	> 100	> 100	> 100	> 100	> 100	> 100	> 100	–	–	–	–	–	–	–	–	–
CCOC(=O)c1ccc(Nc2c3c(nc4ccccc24)CCCC3)cc1	> 100	> 27.7	> 100	> 100	> 100	> 100	> 100	> 100	> 100	–	–	–	–	–	–	–	–	–
COc1ccc2nc3ccc(OC)cc3c(SCCO)c2c1	19.9	> 34.9	> 100	> 100	96.9	> 100	> 79.1	> 100	> 100	–	–	–	–	–	–	–	–	–
C[C@]12CCC(=O)C=C1CC[C@@H]1[C@@H]2[C@@H](O)C[C@@]2(C)[C@H]1CC[C@]2(O)C(=O)COC(=O)COCC(=O)O	> 100	> 100	> 100	> 100	> 100	–	–	–	> 100	–	–	> 100	–	> 100	–	–	> 100	–
O=C1Nc2ccccc2C12CCNC2Cc1ccccc1 (stereo unspecified)	> 100	–	> 100	> 100	> 100	–	–	–	> 100	–	–	–	–	> 100	–	–	> 100	–
CC(C)OP(=O)(OC(C)C)/C(I)=N/Nc1ccc([N+](=O)[O-])cc1	> 100	> 100	> 100	> 100	> 100	–	> 100	–	> 100	–	–	> 100	–	> 100	–	–	> 100	–
